What was measured:
central nervous system = conditions: cats under anaesthesia; cited from earlier work
[1] = after ingestion, horses; cited from earlier work
[2] = oral administration of 500 mg hordenine to horses; cited from earlier work
[3] = humans, from grapefruit juice; cited from earlier work
[4] = oral administration of naringin with Yerba Mate, half life of caffeine and thermogenesis; assay type: in vivo; conditions: oral administration together with Yerba Mate (source of caffeine)

For CN(C)CCc1ccc(O)cc1 [hordenine, N,N-dimethyl-4-hydroxyphenylethylamine], the “muscle tone / spinal cord stimulation” value (central nervous system) is given as “increases muscle tone”, the half-life [1] is given as 24 min and the heart rate [2] is given as “slight increase in heart rate”.
For O=C1C[C@@H](c2ccc(O)cc2)Oc2cc(O)cc(O)c21 [naringenin], the bioavailability [3] is listed as “bioavailable from grapefruit juice”.
With C[C@@H]1O[C@@H](O[C@H]2[C@H](Oc3cc(O)c4c(c3)O[C@H](c3ccc(O)cc3)CC4=O)O[C@H](CO)[C@@H](O)[C@@H]2O)[C@H](O)[C@H](O)[C@H]1O [naringin, 4′, 5,7-tri-hydroxyflavonone 7-rhamno-glucoside] the “effect on half life of caffeine and thermogenesis” value [4] was “acts synergistically with Yerba Mate”.

Source: patent publication US20110281808A1, “Composition and Method for Increasing Pre Workout Thermogenics” (ALLMAX NUTRITION INC., priority 2010, published 2011)
